SMILES strings stand for the structures. Like-named read-outs stand apart in the source and are kept apart here.

For data set [1] the following is noted: 25 days at 29+/−1° C., cited from earlier work.
Data set [2] in a line: Stability of azadirachtin A in a formulation, accelerated storage test and real time conditions. The format is physicochemical. As to the method:
The behavior of azadirachtin in real time and in accelerated conditions (especially at 54° C.) is quite different.

Regarding `C/C=C(\C)C(=O)O[C@H]1C[C@@H](OC(C)=O)[C@@]2(C(=O)OC)CO[C@H]3[C@@H](O)[C@@](C)([C@]45O[C@@]4(C)[C@@H]4C[C@H]5O[C@@H]5OC=C[C@@]54O)[C@H]4[C@]1(CO[C@]4(O)C(=O)OC)[C@@H]32` [azadirachtin A], the “degradation of azadirachtin A” value is “about 80%” in data set [1] (in ethanol and water); 50% in data set [1] (in methanol and acetone); 75-80% in data set [1] (in methylene chloride, carbon tetrachloride and chloroform); 66% in data set [2] (accelerated storage test at 54° C., after 14 days). In data set [2] (real time conditions at 20° C.), the “degradation of azadirachtin A per month” value is “approximately 0.9 % per month”. Also, the “total degradation of azadirachtin A per year” value in data set [2] (real time conditions at 20° C.) was found to be 11 % per year.
